Literature values as cited in patent US9511035B2, “Java ginger extract and manufacturing method” (Hosoda SHC Inc., priority 2013, dated 2016).

How the values were obtained:
[1] = system: rat adrenal medullary pheochromocytoma (PC12 cell); conditions: stated in words; for NGF-like action: no data in this patent, earlier finding of the inventors (JP 2010-90053 A)
chemokine expression = conditions: disclosed in JP 2003-306438 A
tyrosinase = conditions: disclosed in JP 2003-313116 A
[2] = target: platelet-activating factor (Homo sapiens, UniProt P25105); conditions: disclosed in JP 2003-313116 A
Chain of platelet-activating factor (P25105 whole entry): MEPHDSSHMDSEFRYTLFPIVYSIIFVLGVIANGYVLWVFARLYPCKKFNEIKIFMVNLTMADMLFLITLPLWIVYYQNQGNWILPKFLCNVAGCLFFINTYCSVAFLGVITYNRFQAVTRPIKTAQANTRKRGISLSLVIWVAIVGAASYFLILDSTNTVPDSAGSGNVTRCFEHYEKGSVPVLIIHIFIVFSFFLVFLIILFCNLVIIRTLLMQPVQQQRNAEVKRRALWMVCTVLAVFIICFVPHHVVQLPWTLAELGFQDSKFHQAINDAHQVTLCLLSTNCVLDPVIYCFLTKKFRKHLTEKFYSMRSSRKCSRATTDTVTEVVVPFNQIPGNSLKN

Compound	NGF-like action [1]	chemokine expression-inhibiting action (chemokine expression)	tyrosinase activity-inhibiting action (tyrosinase)	process extension activity ([1]; PC12 cell)	differentiation of PC12 cell ([1]; as is the case with the NGF)	NGF-like action (neuronal process extension action) relative to NGF ([1]; comparison with NGF)	platelet-activating factor antagonism [2]
C=C/C=C/c1ccc(OC)c(OC)c1 [monomer, phenyl butenoid monomer, reference compound]	no NGF-like action						
COc1ccc(/C=C/C2CCC=CC2c2ccc(OC)c(OC)c2)cc1OC (centres unmarked) [phenyl butenoid dimer]	showed an NGF-like action	chemokine expression-inhibiting action	tyrosinase activity-inhibiting action	shows a process extension activity	induces differentiation	more effective than NGF	platelet-activating factor antagonism
